According to patent US20100048498A1, “STABLE NON-DIHYDRATE AZITHROMYCIN ORAL SUSPENSIONS” (priority 2004, published 2010):

Assay: Stability of azithromycin form G in suspensions prepared from POS formulations I, II and III
Assay type: physicochemical
Details: 18 mls water, 30° C.
Description: These POS formulations were created by individually weighing each formulation component into a 60-cc High Density Polyethylene (HDPE) bottle with closure. The resulting formulations were then dry-mixed with a Turbula blender (Glen Mills Inc. Maywood, NJ) for 5 minutes. The powder blends were then constituted with 18 mls of water, shaken for 30 seconds and stored without agitation under controlled temperature conditions.
Upon conclusion of the storage time period the POS samples were filtered using a Buchner funnel in combination with a standard vacuum filtration apparatus. A Millipore prefilter (AP25, 47 mm) was fitted onto the funnel for the collection of suspended solids. Before filtering, the constituted POS sample was poured into a 200 ml volumetric flask and diluted to 200 ml with water. This lowered the viscosity of the sample, facilitating a quick filtration step. With the vacuum on, the diluted POS samples were poured onto the Millipore prefilter. The isolated filtrate remaining on top of the prefilter was then allowed to stand for 2-minutes in order to dry. Vacuum was applied to the filtration apparatus during this drying step. Suspensions containing only bulk drug were transferred directly onto the filter paper upon completion of storage, without the described dilution step during sample preparation. After drying, the collected filtrate was placed into 4 cc Sunbroker vials and analyzed via Solid-State Nuclear Magnetic Resonance (SS-NMR) for quantification of conversion to azithromycin dihydrate (form A).
Approximately 300 mg of sample were tightly packed into a 7 mm ZrO spinner for each sample analyzed. One-dimensional ^13C spectra were collected at ambient pressure using ^1H-^13C cross-polarization magic angle spinning (CPMAS) at 295 K on a Bruker 7 mm BL CPMAS probe positioned into a wide-bore Bruker Avance DSX 500 MHz NMR spectrometer (Bruker BioSpin Corporation; Billerica, Mass.). The samples were spun at 7000 Hz corresponding to the maximum specified spinning speed for the 7 mm spinners. The fast spinning speed minimized the intensities of the spinning side bands. To optimize the signal sensitivity, the cross-polarization contact time was adjusted to 2.3 ms and the decoupling power was set to 65 kHz. Typically, a total of 600 scans were acquired, resulting in approximately a 30 minute acquisition time. The spectra were referenced using an external sample of adamantane with its most upfield resonance set to 29.5 ppm.
Eight pairs of resolved peaks were identified to calibrate ratios of form A in the presence of form G, N, M or F. Integral intensities of all peaks were used as input for the calibration procedure using five different binary mixtures ranging from 3 to 81% of form A with each non-dihydrate form. From this, one non-linear calibration graph was generated for each pair of peaks and each form. For the experimental samples, only the peaks that were totally void from excipient overlap were preferentially integrated. The unknown percentages of form A were then determined from the appropriate calibration graphs. The final result for each sample analyzed was calculated as a weighted average of the determinations from each resolved peak pair.
The stability of form G azithromycin was also evaluated for suspensions prepared from POS formulations I, II and III. The form G bulk drug substance contained <1% by weight of form A prior to formulation and constitution. These suspensions were constituted with 18 mls of water and stored for 1 and 10 days at 30° C.

SMILES: CC[C@H]1OC(=O)[C@H](C)[C@@H](O[C@H]2C[C@@](C)(OC)[C@@H](O)[C@H](C)O2)[C@H](C)[C@@H](O[C@@H]2O[C@H](C)C[C@H](N(C)C)[C@H]2O)[C@](C)(O)C[C@@H](C)CN(C)[C@H](C)[C@@H](O)[C@]1(C)O [Form G, azithromycin sesquihydrate]
- % Form A (Formulation I (no flavorings), Day 1): 0%
- % Form A (Formulation I (no flavorings), Day 10, listed as form G, sesquihydrate): did not exhibit conversion
- % Form A (Formulation I (no flavorings), Day 10, sesquihydrate): 0%
- % Form A (Formulation II (Trusil banana), Day 1): 84%
- % Form A (Formulation II (Trusil banana), Day 10): 91%
- % Form A (Formulation III (B&C banana), Day 1): 27%
- % Form A (Formulation III (B&C banana), Day 10): 52%
